# Entries after “also recorded” stand apart in the source; their conditions may differ.
# Experiments:
# [1] = tested on: N2A cells stably transfected with G85R-SOD1; assay: Cell viability (LDH) assay, cells exposed to cyclosporine (CsA); assay type: cell-based; conditions: various concentrations of CsA, presence or absence of inhibitor
# Experimental: (§1) Multiple studies have documented activation of apoptotic mechanism in association with mutant SOD1 expression (Pasinelli, et al. (2004) Neuron 43:19-30). […] To evaluate the role of p38 in this process, cell viability (LDH) and caspase activity assays were performed using N2A cells stably transfected with WT-SOD1 or G85R-SOD1 constructs. […] N2A cells were exposed to various concentrations of CsA in the presence or absence of the p38 inhibitor SB203580.
# [2] = tested on: inhibition of anterograde FAT by G93A-SOD1; assay: Co-perfusion of G93A-SOD1 with kinase inhibitors in squid axoplasm (vesicle motility assay); assay type: cell-based; conditions: for prevention of the inhibition of anterograde FAT induced by G93A-SOD1: co-perfused with recombinant G93A-SOD1 in axoplasm
# Experimental: Increased phosphorylation of neurofilament indicated altered kinase activity with mutant SOD1 and kinases represent a major mechanism for the regulation of conventional kinesin (Donelan, et al. (2002) J. Biol. Chem. 277:24232-42; Morfini, et al. (2006) Nat. Neurosci. 9:907-16; Morfini, et al. (2002) EMBO J. 23:281-93; Morfini, et al. (2001) Dev. Neurosci. 23:364-76). Accordingly, it was determined whether specific protein kinases mediated the effect of mutant SOD1 on anterograde FAT. To this end, axoplasms were co-perfused with recombinant G93A-SOD1 and specific pharmacological or peptide inhibitors of protein kinases. Co-perfusion approaches have facilitated the identification of kinase-dependent pathogenic pathways in other models.
# SB203580 is a highly specific pharmacological kinase inhibitor of the mitogen-activated protein kinase (MAPK) p38, and its specificity has been evaluated for more than 100 kinases (Fabian, et al. (2005) Nat. Biotechnol. 23:329-36).
# In addition to the docking interactions of MAPKs with MKKs, substrates and regulators there are specific motifs that control the interactions of MKKKs and MKKs. A docking site termed DVD (domain for versatile docking) is found in several MKKs including MKK3 and MKK6, which are involved in p38 regulation. […] Observations of p38 activation in an ALS mouse model prompted the evaluation of the role of MKKs in mediating the inhibitory effect of mutant SOD1 on FAT. To this end, pharmacological inhibitors of MKKKs were co-perfused along with SOD1-G93A in squid axoplasm. The MLK-specific inhibitor CEP11004 (Ganguly, et al. (2004) J. Neurochem. 88(2):469) was ineffective, but co-perfusion of mutant SOD1 with DVD peptide prevented the effects of mutant SOD1 on FAT. The DVD site on MKKs is required for docking and activation by a subset of upstream MKKKs (ASK1, TAK1, etc.), and peptides based on this sequences prevents MAPK activation in cultured cells (Takekawa, et al. (2005) Mol. Cell. 18(3):295).
# [3] = tested on: N2A cells stably transfected with G85R-SOD1; assay: Caspase-3 activity assay, cells exposed to cyclosporine (CsA); assay type: cell-based; conditions: various concentrations of CsA, presence or absence of inhibitor
# Experimental: as §1
# JNK = assay: Immunoblot of sister axoplasms with activation-specific phosphoantibodies (JNK); assay type: cell-based, squid; conditions: G93A-SOD1 vs WT-SOD1-perfused axoplasms
# Experimental: (§2) To refine this identification, activation of various p38 and other NF kinases were evaluated in “sister” axoplasms. […] Quantitative analysis of immunoblots indicated G93A-SOD1 induced approximately a 4-fold increase in p38 activity, compared to WT-SOD1 perfused of p38 (n=8).
# NF220 (neurofilament) = assay: Metabolic labeling of isolated sister axoplasms with 32P-ATP, autoradiography/PHOSPHORIMAGER; assay type: cell-based, squid; conditions: compared to WT-SOD1-perfused sister axon; 50-minute incubation; n=4; p≦0.0284
# Experimental: To determine whether mutant SOD1 could induce activation of axonal kinases, metabolic labeling experiments were performed in isolated axoplasms. These procedures helped evaluate effects of WT-SOD1 and G93-SOD1 polypeptides on the phosphorylation pattern of axonal proteins. Two axons from the same squid (“sister” axons) were dissected and extruded. One axon was perfused with WT-SOD1, whereas the contralateral “sister” axon was perfused with G93A-SOD1 in the presence of P^32-radiolabelled ATP. After a 50-minute incubation, axoplasms were lysed and analyzed by autoradiography. Neurofilament (NF) proteins represent the major phosphoproteins proteins in both squid axoplasm and mammalian axons. Consistent with this, increased phosphorylation of NFs represents a well-documented feature early in the course of ALS.
# p38 = assay: Immunoblot of sister axoplasms with antibodies against phosphorylated, catalytically active p38; assay type: cell-based, squid; conditions: compared to WT-SOD1-perfused axoplasm; n=8
# Experimental: as §2
# [4] = tested on: fast axonal transport (FAT), anterograde (conventional kinesin-dependent) and retrograde (CDyn-dependent); assay: Vesicle motility assays in isolated squid axoplasm perfused with SOD1 polypeptides; assay type: cell-based; conditions: polypeptides perfused at 5 μM; video-enhanced microscopy over 50 minutes
# Experimental: Although the axonal compartment represents a critical pathogenic target in ALS, axon-specific effects of mutant SOD1 have not been previously addressed. […] However, it was not clear whether those defects resulted from pathogenic events in the neuronal cell body, or from alterations of cellular processes within the axonal compartment (Conforti, et al. (2007) Trends Neurosci. 30:159-66). Therefore, axon-autonomous effects of pathogenic SOD1 on FAT were evaluated using vesicle motility assays in isolated squid axoplasm, which lacks both nuclear and protein synthetic synthesis compartments. This experimental system allows for quantitative analysis of MBOs moving in both anterograde (conventional kinesin-dependent) and retrograde (cytoplasmic dynein-dependent) FAT rates. Further, the lack of plasma membrane in this preparation facilitates an evaluation of the effects of neuropathogenic proteins on FAT.
# Highly purified (>95%), recombinant forms of wild-type SOD1 (WT-SOD1) and […] fALS-related SOD1 mutants (G93A-SOD1, G85R-SOD1, H46R and A4V-SOD1) were according to standard methods (Strange, et al. (2003) J. Mol. Biol. 328:877-891). Polypeptides were perfused at 5 μM concentration, and both anterograde (conventional kinesin-dependent) and retrograde (CDyn-dependent) FAT rates analyzed by video-enhanced microscopy over 50 minutes. Perfusion of wild type SOD1 (WT-SOD1) had no effect on either direction of FAT. […] Further, the presence of ATP (5 mM) in the perfusion buffer also ruled out mutant SOD1-induced deficits in ATP production.
# GSK3 = assay: Immunoblot of sister axoplasms with activation-specific phosphoantibodies (GSK3); assay type: cell-based, squid; conditions: G93A-SOD1 vs WT-SOD1-perfused axoplasms
# Experimental: as §2
# ERK = assay: Immunoblot of sister axoplasms with activation-specific phosphoantibodies (ERK); assay type: cell-based, squid; conditions: G93A-SOD1 vs WT-SOD1-perfused axoplasms
# Experimental: as §2
# [5] = tested on: KHC584 (first 584 amino acid residues of kinesin-1c); assay: In vitro kinase assay of recombinant p38α with KHC584; assay type: biochemical; conditions: sites mapped to Ser175 and Ser176 by LC/MS/MS
# Description: Although p38α was implicated in mediating the inhibitory effect of pathogenic SOD1 on FAT, specific p38α targets relevant to these effects needed to be determined (Bendotti, et al. (2005) Neurodegener. Dis. 2:128-34). […] These precedents prompted the determination of whether p38α could directly phosphorylate kinesin-1 subunits of conventional kinesin.
# Liquid chromatography tandem mass spectrometry (LC/MS/MS) was used to map KHC584 residues phosphorylated by p38α. To this end, in vitro phosphorylated KHC584 was directly digested with trypsin for LC/MS/MS analysis. Trypsin digest products were fractioned on a C18 HPLC connected to an on-line electrospray ion trap mass spectrometer. Peptide identification was done using SEQUEST algorithm. KHC584 identity was confirmed by identification of multiple kinesin-1C peptides. A peptide corresponding to amino acids 174-188 with unequivocal evidence of phosphorylation by p38α was identified based on spectrum analysis, cross correlation and delta correlation values. Tandem mass spectrometry analysis (MS/MS) by collision-induced dissociation further mapped phosphorylation on both Ser175 and Ser176, consistent with studies showing phosphorylation of Ser176 by the MAPK JNK3. Remarkably, serines 175 and 176 are conserved among squid, mouse and human kinesin-1s (FIG. 4). […]
# [6] = tested on: fast axonal transport (FAT); assay: Vesicle motility assays in squid axoplasm perfused with recombinant active p38 isoforms; assay type: cell-based
# Experimental: Four p38 genes exist in mammals (p38α, p38β, p38γ, and p38δ) (Kyriakis & Avruch (2001) Physiol. Rev. 81:807-69). The p38α and p38β kinases are major p38 isoforms within the nervous system (Lee, et al. (2000) J. Neurosci. Res. 60:623-31), as well as being the most prominent p38 isoforms expressed in motor neurons of the anterior horn spinal cord, the main cell type affected in ALS (Ackerley, et al. (2004) Mol. Cell. Neurosci. 26:354-64). The effect of specific p38 isoforms on FAT was evaluated using vesicle motility assays. The enzymatic activities of recombinant p38 isoforms were first normalized using in vitro kinase assays with ATF-2 as substrate.
molecule,measurement,setting,value
C[S+]([O-])c1ccc(-c2nc(-c3ccncc3)c(-c3ccc(F)cc3)[nH]2)cc1 (stereo not shown) [SB203580],attenuation of cell death (LDH),[1],significant attenuation
same,anterograde FAT rates compared with WT-SOD1-perfused axoplasm,"[2]; co-perfused with G93A-SOD1, FIG. 2",undistinguishable
same,prevention of the inhibition of anterograde FAT induced by G93A-SOD1,[2],protective effects; also recorded: completely prevented
same,attenuation of caspase activation (caspase-3 activity),[3],significant attenuation
CEP11004,prevention of the inhibition of anterograde FAT induced by G93A-SOD1,[2],ineffective
G93A-SOD1: recombinant fALS-related SOD1 mutant G93A,change in JNK activity,JNK,did not reveal changes
same,increase in overall NF220 phosphorylation,NF220 (neurofilament),2 fold
same,increase in p38 activity (p-p38 immunoblot),p38,~4 fold
same,effect on anterograde FAT rate,[4],selectively inhibited
same,change in GSK3 activity,GSK3,did not reveal changes
same,change in ERK activity,ERK,did not reveal changes
WT-SOD1: highly purified recombinant wild-type SOD1,effect on anterograde FAT rate,[4],no effect
same,effect on retrograde FAT rate,[4],no effect
p38α: recombinant active p38 isoform α,phosphorylation of KHC584,[5],phosphorylated
same,effect on FAT,[6]; perfused at 10 nM,most closely mimicked; also recorded: selective inhibition of anterograde FAT
"p3813: recombinant active p38 isoform β (misprinted) (protein, UniProt Q15759 1-364, looked up) Mitogen-activated protein …: MSGPRAGFYRQELNKTVWEVPQRLQGLRPVGSGAYGSVCSAYDARLRQKVAVKKLSRPFQSLIHARRTYRELRLLKHLKHENVIGLLDVFTPATSIEDFSEVYLVTTLMGADLNNIVKCQALSDEHVQFLVYQLLRGLKYIHSAGIIHRDLKPSNVAVNEDCELRILDFGLARQADEEMTGYVATRWYRAPEIMLNWMHYNQTVDIWSVGCIMAELLQGKALFPGSDYIDQLKRIMEVVGTPSPEVLAKISSEHARTYIQSLPPMPQKDLSSIFRGANPLAIDLLGRMLVLDSDQRVSAAEALAHAYFSQYHDPEDEPEAEPYDESVEAKERTLEEWKELTYQEVLSFKPPEPPKPPGSLEIEQ",effect on FAT,[6]; perfused at 50 nM,inhibited both anterograde and retrograde FAT
"p38γ: recombinant active p38 isoform γ (protein, UniProt P53778 1-367, looked up) Mitogen-activated protein …: MSSPPPARSGFYRQEVTKTAWEVRAVYRDLQPVGSGAYGAVCSAVDGRTGAKVAIKKLYRPFQSELFAKRAYRELRLLKHMRHENVIGLLDVFTPDETLDDFTDFYLVMPFMGTDLGKLMKHEKLGEDRIQFLVYQMLKGLRYIHAAGIIHRDLKPGNLAVNEDCELKILDFGLARQADSEMTGYVVTRWYRAPEVILNWMRYTQTVDIWSVGCIMAEMITGKTLFKGSDHLDQLKEIMKVTGTPPAEFVQRLQSDEAKNYMKGLPELEKKDFASILTNASPLAVNLLEKMLVLDAEQRVTAGEALAHPYFESLHDTEDEPQVQKYDDSFDDVDRTLDEWKRVTYKEVLSFKPPRQLGARVSKETPL",effect on FAT,[6]; perfused at 100 nM,lesser extent; also recorded: more modest effect
"p38δ: recombinant active p38 isoform δ (protein, UniProt O15264 1-365, looked up) Mitogen-activated protein …: MSLIRKKGFYKQDVNKTAWELPKTYVSPTHVGSGAYGSVCSAIDKRSGEKVAIKKLSRPFQSEIFAKRAYRELLLLKHMQHENVIGLLDVFTPASSLRNFYDFYLVMPFMQTDLQKIMGMEFSEEKIQYLVYQMLKGLKYIHSAGVVHRDLKPGNLAVNEDCELKILDFGLARHADAEMTGYVVTRWYRAPEVILSWMHYNQTVDIWSVGCIMAEMLTGKTLFKGKDYLDQLTQILKVTGVPGTEFVQKLNDKAAKSYIQSLPQTPRKDFTQLFPRASPQAADLLEKMLELDVDKRLTAAQALTHPFFEPFRDPEEETEAQQPFDDSLEHEKLTVDEWKQHIYKEIVNFSPIARKDSRRRSGMKL",effect on FAT,[6]; perfused at 50 nM,no effect
same,effect on FAT,"[6]; perfused at 50 nM, listed as p385",did not affect FAT
